# According to patent publication US10441607B1, “Multifunctional linker technology containing an N4 group” (priority 2016, dated 2019):
# Tests used:
# [1] = tested on: SSTR2-expressing IMR-32 cells; assay: Cellular uptake / receptor-mediated binding and octreotide blocking in IMR-32 cells; format: cell-based
# Protocol: The cellular uptake of compound 7 was compared to another dual-labeled TOC agent, ^64Cu-DA(NIR)-TOC, which was synthesized by sequential N-terminal functionalization of resin-bound TOC with an azide-containing amino acid and DOTA-NHS, in IMR-32 neuroblastoma cells. Agents (30 nM, 1-2 μCi) were added to vials containing 4 million cells and incubated at 4° C. for 1 hr. […] After washing twice with PBS, the cells were collected and bound radioactivity was measured by a γ counter.
# [2] = tested on: AR42J tumor; assay: PET/CT imaging of AR42J tumor-bearing mice; format: in vivo
# From the text: PET/CT images (FIG. 6) were taken of AR42J tumor-bearing mice administered ^68Ga-DOTA-TOC (left) and ^68Ga-MMC(5-FU)-TOC (right).
# [3] = Biodistribution in AR42J xenografts; format: in vivo, mice; settings: mouse, all tissues other than tumor and kidneys, read-out: uptake in all locations other than tumor and kidneys
# [4] = tested on: AR42J xenografts; assay: Biodistribution in AR42J xenografts; format: in vivo, mice
compound,measurement,setting,value
"C[C@@H](O)[C@@H]1NC(=O)[C@H](CCCCN)NC(=O)[C@@H](Cc2c[nH]c3ccccc23)NC(=O)[C@H](Cc2ccc(O)cc2)NC(=O)[C@@H](NC(=O)[C@@H](Cc2ccccc2)NC(=O)CN2CCN(CC(=O)O)CCN(C(=O)Cn3cc(F)c(=O)[nH]c3=O)CCN(CC(=O)O)CC2)CSSC[C@@H](C(=O)N[C@H](CO)[C@@H](C)O)NC1=O [^68Ga-MMC(5-FU)-TOC, metal not drawn]",binding to IMR-32 cells,[1],good binding
same,reduction in binding on blocking with octreotide,[1]; 10-fold excess of octreotide,81.2%
same,reduction in binding on blocking with octreotide,[1]; 200-fold excess of octreotide,94.9%
same,localization in PET/CT images,[2],"primarily in the tumor, the kidneys, and the bladder"
same,tissue uptake,[3],< 5 %ID/g
same,location of the majority of the injected dose,[4],either the tumor or kidneys
